The format of this series is physicochemical. Particulars: for area of the main peak has decreased: after 72h at pH = 2.3, sodiumphosphate buffer, HPLC-ELSD. The procedure: Example 11. The acid stability of four dihydroartemisinin (DHA) derivatives was investigated. […] Phenomex Luna; 50 x 4.6 mm, 3 μ C18. ACN/H2O; 60/40 at 1.0 ml/min DHA dissolved in mob. phase to give 0,21 mg/ml Compound of formula 1, n=4 (3PEG-DHA) dissolved in H2O to give 0.48 mg/ml in 0.1 M buffer. […] Artemisone dissolved in mob. phase to give 0.20 mg/ml in 0.1 M buffer, Artesunate dissolved in mob. phase to give 0.24 mg/ml in 0.1 M buffer. 20 μ[…]

In the case of `C[C@H]1[C@H](N2CCS(=O)(=O)CC2)O[C@@H]2O[C@@]3(C)CC[C@H]4[C@H](C)CC[C@@H]1[C@@]24OO3` [artemison, artemisone], the degradation result is “No sign of degradation” and the “area of the main peak has decreased” value is given as “about 71%”.

With `C[C@H]1[C@H](OC(=O)CCC(=O)O)O[C@@H]2O[C@@]3(C)CC[C@H]4[C@H](C)CC[C@@H]1[C@@]24OO3` [artesunate], the degradation entry is listed as “No sign of degradation” and the “area of the main peak has decreased” value is on record as “about 40%”. Under “72 h, 0.24 mg/ml, pH 2.3”, the degraded is reported as 41%.
